Laboratory results as given in PMC8187626, “Clostridioides difficile specific DNA adenine methyltransferase CamA squeezes and flips adenine out of DNA helix” (Nature Communications, 2021).

Legend:
CamA [1] = target: T1, CamA (Clostridioides difficile, UniProt Q183J3); assay: isothermal titration calorimetry, one-site fit; assay type: binding
T1 construct: gene CD630_27580; full length, 577 residues; N-terminal His-SUMO tag cut by ULP protease leaving His-Met; E. coli Rosetta, plasmid pXC2184; active as monomer

CamA [2] = target: T1, CamA; assay: MTase-Glo luminescence assay of SAH formation; assay type: biochemical; conditions: 20 µM dsDNA substrate (CAAAAA site), 50 nM CamA, 100 mM NaCl, 20 mM Tris-HCl pH 7.5, ~22 °C, 2.5 min
CamA SeMet = target: T2, CamA SeMet (Clostridioides difficile 630, UniProt Q183J3 1-577); assay: X-ray crystallography; no cofactor; ITC at 25 C: 200 uM DNA into 18-20 uM CamA, 20 mM HEPES pH 8.0, 0.5 mM TCEP, 5% glycerol, 150 or 250 mM NaCl (cofactor comparison at 250 mM NaCl); conditions: protein: recombinant; tags: His-SUMO cleaved, leaves N-terminal His-Met; 5' overhang 1 nt at each end (T / A)
T2 sequence: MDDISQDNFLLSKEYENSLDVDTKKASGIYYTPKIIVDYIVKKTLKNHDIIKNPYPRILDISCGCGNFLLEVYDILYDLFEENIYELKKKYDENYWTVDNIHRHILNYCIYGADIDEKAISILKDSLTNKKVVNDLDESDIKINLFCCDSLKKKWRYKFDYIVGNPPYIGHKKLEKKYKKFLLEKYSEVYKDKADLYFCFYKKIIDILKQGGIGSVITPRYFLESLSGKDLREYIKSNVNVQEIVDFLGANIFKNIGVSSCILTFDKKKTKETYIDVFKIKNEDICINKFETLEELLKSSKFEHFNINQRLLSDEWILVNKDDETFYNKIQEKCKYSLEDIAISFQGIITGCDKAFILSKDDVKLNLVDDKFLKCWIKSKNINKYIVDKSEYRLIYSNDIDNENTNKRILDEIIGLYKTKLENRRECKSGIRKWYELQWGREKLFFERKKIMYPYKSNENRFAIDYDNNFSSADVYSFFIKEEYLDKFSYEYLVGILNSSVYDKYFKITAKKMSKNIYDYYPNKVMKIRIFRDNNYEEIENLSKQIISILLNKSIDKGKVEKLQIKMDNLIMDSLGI

CamA [3] = target: T3, CamA (Clostridioides difficile 630, UniProt Q183J3 1-577); assay: X-ray crystallography; no cofactor bound (SAH dissociated); 2.68 A; ITC at 25 C: 200 uM DNA into 18-20 uM CamA, 20 mM HEPES pH 8.0, 0.5 mM TCEP, 5% glycerol, 150 or 250 mM NaCl (cofactor comparison at 250 mM NaCl); conditions: protein: recombinant; tags: His-SUMO cleaved, leaves N-terminal His-Met; 5' overhang 1 nt at each end (T / A)
T3 sequence: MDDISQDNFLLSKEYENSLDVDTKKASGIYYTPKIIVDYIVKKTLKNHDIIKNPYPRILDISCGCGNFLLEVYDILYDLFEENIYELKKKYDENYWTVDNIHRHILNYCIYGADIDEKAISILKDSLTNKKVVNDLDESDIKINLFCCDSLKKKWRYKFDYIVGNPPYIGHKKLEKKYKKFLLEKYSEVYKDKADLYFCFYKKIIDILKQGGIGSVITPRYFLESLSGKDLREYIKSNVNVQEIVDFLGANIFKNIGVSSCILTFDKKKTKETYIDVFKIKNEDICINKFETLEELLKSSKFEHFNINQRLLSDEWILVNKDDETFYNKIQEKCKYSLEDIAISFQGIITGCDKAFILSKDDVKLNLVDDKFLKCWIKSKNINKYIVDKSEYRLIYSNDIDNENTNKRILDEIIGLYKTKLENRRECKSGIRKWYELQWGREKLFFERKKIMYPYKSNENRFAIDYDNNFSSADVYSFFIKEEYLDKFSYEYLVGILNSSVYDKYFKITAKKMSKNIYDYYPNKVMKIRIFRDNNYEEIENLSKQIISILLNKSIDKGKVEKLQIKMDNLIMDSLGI

Molecule	Kd (CamA [1]) [µM]	Km (CamA [2]) [µM]	binding result (CamA SeMet)	binding result (CamA [3])
Nc1ncnc2c1ncn2[C@@H]1O[C@H](C[C@@H](N)CC[C@H](N)C(=O)O)[C@@H](O)[C@H]1O [sinefungin]	19			
Nc1ncnc2c1ncn2[C@@H]1O[C@H](CSCC[C@H](N)C(=O)O)[C@@H](O)[C@H]1O [SAH]	8			
C[S+](CC[C@H](N)C(=O)O)C[C@H]1O[C@@H](n2cnc3c(N)ncnc32)[C@H](O)[C@@H]1O (stereo partly drawn) [SAM]	23 to 35	> 17		
co-crystal DNA 13 bp + overhangs (dsDNA) DNA 1: TTCAAAAAGTCCCA DNA 2: ATGGGACTTTTTGA			binds	binds
